Drawing on patent US8541461B2 (Astex Therapeutics Limited, priority 2005, dated 2013), this text covers IC50 for 32 compounds.

Like-named read-outs stand apart in the source and are kept apart here.

Test [1] deals with T1, PKB-PIF fusion protein (protein kinase B) (Homo sapiens, UniProt P31751).
T1 construct: PIF (fusion partner); made in house
Description: Measurement of PKB kinase inhibitory activity (IC50). It counts as biochemical. On the procedure: The reaction is allowed to proceed for 20 minutes before addition of excess orthophosphoric acid to quench activity. The reaction mixture is transferred to a phosphocellulose filter plate where the peptide binds and the unused ATP is washed away. After washing, scintillant is added and the incorporated activity measured by scintillation counting.

In test [2] the target is T2, PKA catalytic domain (Homo sapiens, UniProt P17612).
T2 construct: PKA catalytic domain from Upstate Biotechnology (#14-440); purchased Upstate Biotechnology 14-440
The test is described as follows: Measurement of PKA kinase inhibitory activity (IC50). It counts as biochemical. The protocol:
A final concentration of 1 nM enzyme is used in a buffer that includes 20 mM MOPS pH 7.2, 40 μM ATP/γ^33P-ATP and 5 μM substrate. […] The reaction is allowed to proceed for 20 minutes before addition of excess orthophosphoric acid to quench activity. Unincorporated γ^33P-ATP is then separated from phosphorylated proteins on a Millipore MAPH filter plate. The plates are washed, scintillant is added and the plates are then subjected to counting on a Packard Topcount.

The mark [3] stands for this setting: 1 nM enzyme, 40 μM ATP/γ33P-ATP, 5 μM substrate, read-out: PKA IC50.
[4] abbreviates: 0.6 nM enzyme, 30 μM ATP/γ33P-ATP, 25 μM AKTide-2T substrate, read-out: PKB IC50.

T1 sequence (P31751 with tags, fused parts or gaps limits assumed): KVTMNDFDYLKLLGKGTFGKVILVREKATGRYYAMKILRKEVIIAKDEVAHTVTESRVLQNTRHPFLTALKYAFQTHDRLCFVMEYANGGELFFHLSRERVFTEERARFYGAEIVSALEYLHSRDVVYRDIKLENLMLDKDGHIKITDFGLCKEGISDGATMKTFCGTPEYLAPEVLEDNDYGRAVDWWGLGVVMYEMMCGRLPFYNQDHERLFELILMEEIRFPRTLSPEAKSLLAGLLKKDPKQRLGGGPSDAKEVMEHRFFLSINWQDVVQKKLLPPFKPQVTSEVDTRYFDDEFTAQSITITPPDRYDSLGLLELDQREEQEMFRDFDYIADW

`NCC(c1ccccc1)c1ccc(-c2cn[nH]c2)cc1` (centres unmarked) [Example 1, 2-Phenyl-2-[4-(1H-pyrazol-4-yl)-phenyl]-ethylamine]: the IC50 in test [1] and in test [2] was less than 1000 nM in each case.

`NCC(c1ccc(Cl)cc1)c1ccc(-c2cn[nH]c2)cc1` (centres unmarked) [Example 4, 2-(4-Chloro-phenyl)-2-[4-(1H-pyrazol-4-yl)-phenyl]-ethylamine]: the IC50 (commonly the concentration that inhibits the measured activity by half) in test [2] (setting [3]) was less than 1000 nM.

Turning to `Cc1n[nH]c(C)c1-c1cccc(CC(N)c2ccccc2)c1` (centres unmarked) [Example 5, 2-[3-(3,5-Dimethyl-1H-pyrazol-4-yl)-phenyl]-1-phenyl-ethylamine], the IC50 in test [1] (setting [4]) is less than 5000 nM; in test [2] (setting [3]), less than 15000 nM.

Take `NCC(Cc1ccccc1)c1ccc(-c2cn[nH]c2)cc1` (centres unmarked) [Example 7, 3-Phenyl-2-[4-(1H-pyrazol-4-yl)-phenyl]-propylamine]: the IC50 was less than 5000 nM in test [1] (setting [4]) and less than 15000 nM in test [2] (setting [3]).

As for `CCNCC(c1ccc(Cl)cc1)c1ccc(-c2cn[nH]c2)cc1` (centres unmarked) [Example 43, {2-(4-Chloro-phenyl)-2-[4-(1H-pyrazol-4-yl)-phenyl]-ethyl}-ethyl-amine], the IC50 in test [1] (setting [4]) and in test [2] (setting [3]) was less than 1000 nM in each case.

Turning to `Clc1ccc(C(Cn2ccnc2)c2ccc(-c3cn[nH]c3)cc2)cc1` (centres unmarked) [Example 44, 4-{4-[1-(4-Chloro-phenyl)-2-imidazol-1-yl-ethyl]-phenyl}-1H-pyrazole], the IC50 in test [1] (setting [4]) and in test [2] (setting [3]) was less than 1000 nM in each case.

As to `CNCC(c1ccc(Oc2ccccc2)cc1)c1ccc(-c2cn[nH]c2)cc1` (centres unmarked) [Example 45, Methyl-{2-(4-phenoxy-phenyl)-2-[4-(1H-pyrazol-4-yl)-phenyl]-ethyl}-amine], the IC50 in test [1] (setting [4]) is less than 5000 nM; in test [2] (setting [3]), less than 1000 nM.

`CNCC(c1ccc(OC)cc1)c1ccc(-c2cn[nH]c2)cc1` (centres unmarked) [Example 46, {2-(4-Methoxy-phenyl)-2-[4-(1H-pyrazol-4-yl)-phenyl]-ethyl}-methyl-amine]: the IC50 in test [1] (setting [4]) and in test [2] (setting [3]) was less than 1000 nM throughout.

In the case of `CNCC(c1ccc(Oc2cnccn2)cc1)c1ccc(-c2cn[nH]c2)cc1` (centres unmarked) [Example 47, Methyl-{2-[4-(pyrazin-2-yloxy)-phenyl]-2-[4-(1H-pyrazol-4-yl)-phenyl]-ethyl}-amine], the IC50 in test [1] (setting [4]) and in test [2] (setting [3]) was less than 1000 nM each time.

`CNCC(Oc1ccccc1)c1ccc(-c2cn[nH]c2)cc1` (centres unmarked) [Example 48, Methyl-{2-phenoxy-2-[4-(1H-pyrazol-4-yl)-phenyl]-ethyl}-amine]: the IC50 in test [1] (setting [4]) was less than 5000 nM; in test [2] (setting [3]), less than 1000 nM.

`CNCCC(c1ccc(-c2cn[nH]c2)cc1)c1ccc(N(C)C)cc1` (centres unmarked) [Example 53, Dimethyl-(4-{3-methylamino-1-[4-(1H-pyrazol-4-yl)-phenyl]-propyl}-phenyl)-amine]: the IC50 in test [1] (setting [4]) was less than 5000 nM.

`N#Cc1n[nH]cc1-c1ccc(C2(c3ccc(Cl)cc3)CCNCC2)cc1` [Example 55, 4-{4-[4-(4-Chloro-phenyl)-piperidin-4-yl]-phenyl}-1H-pyrazole-3-carbonitrile]: in test [1] (setting [4]), the IC50 was less than 5000 nM.

`NCCC(c1ccc(Oc2ccccc2)cc1)c1ccc(-c2cn[nH]c2)cc1` (centres unmarked) [Example 56, 3-(4-Phenoxy-phenyl)-3-[4-(1H-pyrazol-4-yl)-phenyl]-propylamine]: in test [1] (setting [4]), the IC50 was less than 1000 nM.

`Clc1ccc(C(c2ccc(-c3cn[nH]c3)cc2)N2CCNCC2)cc1` (centres unmarked) [Example 57, 1-{(4-Chloro-phenyl)-[4-(1H-pyrazol-4-yl)-phenyl]-methyl}-piperazine]: in test [1] (setting [4]), the IC50 was less than 1000 nM.

Turning to `CN1CCCN(C(c2ccccc2)c2ccc(-c3cn[nH]c3)cc2)CC1` (centres unmarked) [Example 58, 1-Methyl-4-{phenyl-[4-(1H-pyrazol-4-yl)-phenyl]-methyl}-[1,4]diazepane], the IC50 in test [1] (setting [4]) is less than 5000 nM.

For `Clc1ccc(C(CCn2ccnc2)c2ccc(-c3cn[nH]c3)cc2)cc1` (centres unmarked) [Example 61, 4-{4-[1-(4-Chloro-phenyl)-3-imidazol-1-yl-propyl]-phenyl}-1H-pyrazole], the IC50 in test [1] (setting [4]) was less than 1000 nM.

`c1ccc(OC(CCn2ccnc2)c2ccc(-c3cn[nH]c3)cc2)cc1` (centres unmarked) [Example 62, 4-[4-(3-Imidazol-1-yl-1-phenoxy-propyl)-phenyl]-1H-pyrazole]: in test [1] (setting [4]), the IC50 is less than 50000 nM.

As for `c1ccc(C(c2ccc(-c3cn[nH]c3)cc2)N2CCNCC2)cc1` (centres unmarked) [Example 64], the IC50 in test [1] (setting [4]) was less than 5000 nM.

In the case of `CNCC(c1ccc(F)cc1)c1ccc(-c2cn[nH]c2)cc1` (centres unmarked) [Example 65, {2-(4-Fluoro-phenyl)-2-[4-(1H-pyrazol-4-yl)-phenyl]-ethyl}-methyl-amine], in test [1] (setting [4]), the IC50 is less than 1000 nM.

With `COCCCOc1ccc(C2(c3ccc(-c4cn[nH]c4)cc3)CCNCC2)cc1` [Example 68, 4-[4-(3-Methoxy-propoxy)-phenyl]-4-[4-(1H-pyrazol-4-yl)-phenyl]-piperidine], in test [1] (setting [4]), the IC50 is less than 5000 nM.

Consider `NC(=O)CC(c1ccc(-c2cn[nH]c2)cc1)c1ccc(Cl)c(Cl)c1` (centres unmarked) [Example 69, 3-(3,4-Dichloro-phenyl)-3-[4-(1H-pyrazol-4-yl)-phenyl]-propionamide], for which, in test [1] (setting [4]), the IC50 is less than 1000 nM.

Consider `CNCC(c1ccc(Oc2cc(C(N)=O)ccn2)cc1)c1ccc(-c2cn[nH]c2)cc1` (centres unmarked) [Example 70, 2-(4-{2-Methylamino-1-[4-(1H-pyrazol-4-yl)-phenyl]-ethyl}-phenoxy)-isonicotinamide], for which, in test [1] (setting [4]), the IC50 was less than 50000 nM.

Consider `CNCC(Oc1ccc(Cl)cc1)c1ccc(-c2cn[nH]c2)cc1` (centres unmarked) [Example 71, {2-(4-Chloro-phenoxy)-2-[4-(1H-pyrazol-4-yl)-phenyl]-ethyl}-methyl-amine], for which the IC50 in test [1] (setting [4]) is less than 1000 nM.

As for `OCCCNCC(c1ccc(Cl)cc1)c1ccc(-c2cn[nH]c2)cc1` (centres unmarked) [Example 72], the IC50 in test [1] (setting [4]) was less than 1000 nM.

As for `CNCC(c1ccc(-c2cccnc2)cc1)c1ccc(-c2cn[nH]c2)cc1` (centres unmarked) [Example 75, Methyl-[2-[4-(1H-pyrazol-4-yl)-phenyl]-2-(4-pyridin-3-yl-phenyl)-ethyl]-amine], the IC50 in test [1] (setting [4]) was less than 5000 nM.

As to `CNCCC(c1ccc(O)cc1)c1ccc(-c2cn[nH]c2)cc1` (centres unmarked) [Example 76, 4-{3-Methylamino-1-[4-(1H-pyrazol-4-yl)-phenyl]-propyl}-phenol], the IC50 in test [1] (setting [4]) is less than 1000 nM.

Take `COc1ccc(C(CCN)c2ccc(-c3cn[nH]c3)cc2)cc1` (centres unmarked) [Example 77, 3-(4-Methoxy-phenyl)-3-[4-(1H-pyrazol-4-yl)-phenyl]-propylamine]: the IC50 in test [1] (setting [4]) is less than 1000 nM.

For the compound `Fc1cc(C2(c3ccc(-c4cn[nH]c4)cc3)CCNCC2)ccc1Cl` [Example 87, 4-(4-Chloro-3-fluoro-phenyl)-4-[4-(1H-pyrazol-4-yl)-phenyl]-piperidine], in test [1] (setting [4]), the IC50 is less than 1000 nM.

Take `c1cc(C2(c3ccc(-c4cn[nH]c4)cc3)CCNCC2)ccn1` [Example 89, 4-[4-(1H-Pyrazol-4-yl)-phenyl]-1,2,3,4,5,6-hexahydro-[4,4′]bipyridinyl]: the IC50 in test [1] (setting [4]) was less than 5000 nM.

Regarding `CNCC(O)(c1ccc(-c2cn[nH]c2)cc1)c1ccc([N+](=O)[O-])cc1` (centres unmarked) [Example 91, 2-Methylamino-1-(4-nitro-phenyl)-1-[4-(1H-pyrazol-4-yl)-phenyl]-ethanol], the IC50 in test [1] (setting [4]) is less than 1000 nM.

`NCCC(c1ccc(-c2cn[nH]c2)nc1)c1ccc(Cl)c(Cl)c1` (centres unmarked) [Example 94, 3-(3,4-Dichloro-phenyl)-3-[6-(1H-pyrazol-4-yl)-pyridin-3-yl]-propylamine]: the 50% inhibitory concentration (IC50) in test [1] (setting [4]) was less than 1000 nM.

As for `NC(c1ccc(Cl)cc1)c1ccc(-c2cn[nH]c2)cc1` (centres unmarked) [Example 104, C-(4-Chloro-phenyl)-C-[4-(1H-pyrazol-4-yl)-phenyl]-methylamine], the IC50 in test [1] (setting [4]) was less than 1000 nM.
